# Target: T1, Interleukin-1 receptor-associated kinase 4 (Homo sapiens, UniProt Q9NWZ3)
# T1 sequence (Q9NWZ3 whole entry): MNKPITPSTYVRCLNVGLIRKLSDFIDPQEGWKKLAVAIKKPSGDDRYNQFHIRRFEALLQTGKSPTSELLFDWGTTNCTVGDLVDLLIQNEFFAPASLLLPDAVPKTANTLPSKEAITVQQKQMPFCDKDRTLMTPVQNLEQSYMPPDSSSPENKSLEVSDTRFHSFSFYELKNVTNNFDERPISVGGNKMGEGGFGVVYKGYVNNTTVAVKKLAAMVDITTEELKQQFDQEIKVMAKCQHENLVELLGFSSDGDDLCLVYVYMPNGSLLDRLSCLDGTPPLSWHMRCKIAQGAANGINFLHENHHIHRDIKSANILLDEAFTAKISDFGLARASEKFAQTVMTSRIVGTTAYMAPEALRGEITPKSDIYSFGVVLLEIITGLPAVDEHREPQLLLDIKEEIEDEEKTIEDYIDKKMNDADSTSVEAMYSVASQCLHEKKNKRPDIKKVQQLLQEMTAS
# Assay: IRAK4 Inhibition Assay: The assays were performed in U-bottom 384-well plates. The final assay volume was 30 μL prepared from 15 μL additions of enzyme and substrates (fluoresceinated peptide and ATP) and test compounds in assay buffer (20 mM HEPES pH 7.2, 10 mM MgCl2, 0.015% Brij 35 and 4 mM DTT). The reaction was initiated by the combination of IRAK4 with substrates and test compounds. The reaction mixture was incubated at room temperature for 60 min. and terminated by adding 45 μL of 35 mM EDTA to each sample. The reaction mixture was analyzed on the Caliper LABCHIP® 3000 (Caliper, Hopkinton, Mass.) by electrophoretic separation of the fluorescent substrate and phosphorylated product. Inhibition data were calculated by comparison to no enzyme control reactions for 100% inhibition and vehicle-only reactions for 0% inhibition. The final concentrations of reagents in the assays are ATP, 500 μM; FL-IPTSPITTTYFFFKKK peptide 1.5 μM; IRAK4, 0.6 nM; and DMSO, 1.6%.
structure (smiles),measurement,value
CC(C)(O)[C@H](F)CNC(=O)c1cnc(-c2cnn3cc(Cl)cnc23)cc1NC12CC(C1)C2,IC50,9 nM
COC(C)(C)[C@H]1CC[C@H](NC(=O)c2cnc(-c3cnc4cc(Cl)cnn34)cc2NC2COC2)CC1,IC50,7 nM
CC(C)(F)CNc1cc(-c2cnn3cc(C#N)cnc23)ncc1C(=O)NC[C@@H](F)C(C)(C)O,IC50,12 nM
CC(C)(O)[C@H](F)CNC(=O)c1cnc(-c2cnn3cc(Cl)cnc23)cc1Nc1ccn(CC(F)F)c1,IC50,2 nM
CC(C)(O)[C@H](F)CNC(=O)c1cnc(-c2cnn3cc(C#N)cnc23)cc1NC1CCC(F)(F)C1O (some centres not stated),IC50,13 nM
CC(C)(O)[C@H](F)CNC(=O)c1cnc(-c2cnn3cc(C#N)cnc23)cc1NC1CCC1,IC50,2 nM
CCCNc1cc(-c2cnn3cc(Cl)cnc23)ncc1C(=O)NC[C@@H](F)C(C)(C)O,IC50,5 nM
CC(C)(C)Nc1cc(-c2cnc3cc(C#N)cnn23)ncc1C(=O)NC[C@@H](F)C(C)(C)O,IC50,2 nM
CC(C)(O)[C@H](F)CNC(=O)c1cnc(-c2cnn3cc(C#N)cnc23)cc1Nc1ccc(C(N)=O)cc1,IC50,1 nM
CC(C)(O)[C@H](F)CNC(=O)c1cnc(-c2cnn3cc(C#N)cnc23)cc1Nc1ccn(CC(F)F)c1,IC50,2 nM
CC(=O)N[C@H]1CC[C@H](NC(=O)c2cnc(-c3cnn4cc(C#N)cnc34)cc2NC(C)C)CC1,IC50,15 nM
CC1(Nc2cc(-c3cnc4cc(Cl)cnn34)ncc2C(=O)NC[C@H](F)C(C)(C)O)CC1,IC50,2 nM

# From ChEMBL document CHEMBL5727650, “Heteroaryl substituted aminopyridine compounds” (2020)
